From patent publication CN109260209A, “一种骨化三醇软胶囊及其制备方法” (CP Pharmaceutical Qingdao Co Ltd, priority 2018, dated 2019)

How the values were obtained:
Format in all cases: in vivo, SD rat
[1] = system: ovariectomized osteoporotic rats (去卵巢骨质疏松大鼠); assay: Osteocalcin in ovariectomized osteoporotic rats, radioimmunoassay (Table 5)
[2] = system: ovariectomized osteoporotic rats (去卵巢骨质疏松大鼠); assay: Serum calcitonin in ovariectomized osteoporotic rats, radioimmunoassay (Table 4)
[3] = system: ovariectomized osteoporotic rats (去卵巢骨质疏松大鼠); assay: Serum phosphorus in ovariectomized osteoporotic rats (Table 8); conditions: for serum phosphorus content (result in words): compared with negative control group
[4] = system: ovariectomized osteoporotic rats (去卵巢骨质疏松大鼠); assay: Serum estradiol in ovariectomized osteoporotic rats, radioimmunoassay (Table 6)
[5] = system: ovariectomized osteoporotic rats (去卵巢骨质疏松大鼠); assay: Serum calcium in ovariectomized osteoporotic rats (Table 7); conditions: for serum calcium content (result in words): compared with negative control group
[6] = system: ovariectomized osteoporotic rats (去卵巢骨质疏松大鼠); assay: Uterine wet weight in ovariectomized osteoporotic rats (Table 10); conditions: three months after surgery; for uterine wet weight (result in words): compared with negative control group; for uterine wet weight: oral once daily, 1 month, nilestriol 1 mg/kg, calcitriol 5 μg/kg, emodin 5 μg/kg, calcitriol + emodin 5 μg/kg
[7] = system: ovariectomized osteoporotic rats (去卵巢骨质疏松大鼠); assay: Serum alkaline phosphatase in ovariectomized osteoporotic rats (Table 9); conditions: three months after surgery, compared with negative control group
[8] = system: ovariectomized osteoporotic rats (去卵巢骨质疏松大鼠); assay: Bone mineral content (total and trabecular) in ovariectomized osteoporotic rats (Table 3); conditions: oral once daily, 1 month; calcitriol 5 μg/kg, emodin 5 μg/kg, calcitriol + emodin 5 μg/kg; right tibia
[9] = system: ovariectomized osteoporotic rats (去卵巢骨质疏松大鼠); assay: Bone mineral density (total and trabecular) in ovariectomized osteoporotic rats (Table 2); conditions: oral once daily, 1 month; calcitriol 5 μg/kg, emodin 5 μg/kg, calcitriol + emodin 5 μg/kg; right tibia
[10] = three months after surgery, oral once daily, 1 month, nilestriol 1 mg/kg, calcitriol 5 μg/kg, emodin 5 μg/kg, calcitriol + emodin 5 μg/kg

With `C#C[C@]1(O)[C@H](O)C[C@H]2[C@@H]3CCc4cc(OC5CCCC5)ccc4[C@H]3CC[C@@]21C` [阳性对照组, 尼尔雌醇] the osteocalcin content ([1]; before surgery (baseline)) was 2.98 ± 0.89 ng/L, the osteocalcin content [1, 10] was 4.12 ± 1.32 ng/L and the serum calcitonin content ([2]; before surgery (baseline)) was 231.35 ± 20.11 ng/L. For the same molecule, the serum calcitonin content [2, 10] was 459.34 ± 11.43 ng/L, the phosphorus content ([3]; before surgery (baseline)) was 1.55 ± 0.45 mmol/L and the “serum phosphorus content (result in words)” value (“serum phosphorus content” for short) ([3]; three months after surgery) was “血清钙和磷含量与阴性对照组相比上升”. For the same molecule, the phosphorus content [3, 10] was 1.87 ± 0.46 mmol/L, the serum estradiol content ([4]; before surgery (baseline)) was 12.65 ± 2.21 pg/mL and the serum estradiol content [4, 10] was 20.43 ± 1.54 pg/mL. For the same molecule, the calcium content ([5]; before surgery (baseline)) was 4.19 ± 0.43 mmol/L, the “serum calcium content (result in words)” value ([5]; three months after surgery) was “血清钙和磷含量与阴性对照组相比上升” and the calcium content [5, 10] was 4.65 ± 0.12 mmol/L. For the same molecule, the “uterine wet weight (result in words)” value [6] was “子宫湿重明显高于阴性对照组”, the uterine wet weight [6] was 118.43 ± 12.43 mg and the “serum alkaline phosphatase content (result in words)” value (“serum alkaline phosphatase content” for short) [7] was “与阴性对照组相比出现下降”.

For `Cc1cc(O)c2c(c1)C(=O)c1cc(O)cc(O)c1C2=O` [大黄素组, 大黄素], the “bone mineral content (result in words)” value [8] was “产生一定的提高骨含量的作用”, the osteocalcin content ([1]; before surgery (baseline)) was 3.09 ± 1.21 ng/L and the “osteocalcin content (result in words)” value ([1]; three months after surgery) was “骨钙素含量上升”. The osteocalcin content [1, 10] was 3.38 ± 0.98 ng/L, the serum calcitonin content ([2]; before surgery (baseline)) was 222.43 ± 19.43 ng/L and the “serum calcitonin content (result in words)” value ([2]; three months after surgery) was “血清降钙素含量上升”. For the same molecule, the serum calcitonin content [2, 10] was 265.24 ± 22.43 ng/L, the phosphorus content ([3]; before surgery (baseline)) was 1.58 ± 0.43 mmol/L and the “serum phosphorus content” value ([3]; three months after surgery) was “血清钙和磷含量与阴性对照组相比上升”. For the same molecule, the phosphorus content [3, 10] was 1.73 ± 0.65 mmol/L, the serum estradiol content ([4]; before surgery (baseline)) was 12.87 ± 2.01 pg/mL and the “serum estradiol content (result in words)” value ([4]; three months after surgery) was “血清雌二醇含量上升”. For the same molecule, the serum estradiol content [4, 10] was 14.67 ± 1.76 pg/mL, the calcium content ([5]; before surgery (baseline)) was 4.21 ± 0.24 mmol/L and the “serum calcium content (result in words)” value ([5]; three months after surgery) was “血清钙和磷含量与阴性对照组相比上升”. For the same molecule, the calcium content [5, 10] was 4.21 ± 0.56 mmol/L, the “uterine wet weight (result in words)” value [6] was “子宫湿重明显高于阴性对照组” and the uterine wet weight [6] was 89.34 ± 19.32 mg. The “serum alkaline phosphatase content” value [7] was “与阴性对照组相比也出现下降” and the “bone mineral density (result in words)” value [9] was “产生一定的增强骨密度的作用”.

With `C=C1/C(=C\C=C2/CCC[C@]3(C)[C@@H]([C@H](C)CCCC(C)(C)O)CC[C@@H]23)C[C@@H](O)C[C@@H]1O` [骨化三醇组, 9,10-开环胆甾-5Z,7E,10(19)-三烯-1α,3β,25-三醇] the “bone mineral content (result in words)” value [8] was “产生一定的提高骨含量的作用”, the osteocalcin content ([1]; before surgery (baseline)) was 3.22 ± 1.22 ng/L and the “osteocalcin content (result in words)” value ([1]; three months after surgery) was “骨钙素含量上升”. The osteocalcin content [1, 10] was 3.45 ± 1.21 ng/L, the serum calcitonin content ([2]; before surgery (baseline)) was 241.23 ± 11.43 ng/L and the “serum calcitonin content (result in words)” value ([2]; three months after surgery) was “血清降钙素含量上升”. The serum calcitonin content [2, 10] was 321.34 ± 13.43 ng/L, the phosphorus content ([3]; before surgery (baseline)) was 1.61 ± 0.38 mmol/L and the “serum phosphorus content” value ([3]; three months after surgery) was “血清钙和磷含量与阴性对照组相比上升”. The phosphorus content [3, 10] was 1.71 ± 0.53 mmol/L, the serum estradiol content ([4]; before surgery (baseline)) was 13.21 ± 1.56 pg/mL and the “serum estradiol content (result in words)” value ([4]; three months after surgery) was “血清雌二醇含量上升”. The serum estradiol content [4, 10] was 15.34 ± 1.53 pg/mL, the calcium content ([5]; before surgery (baseline)) was 4.10 ± 0.54 mmol/L and the “serum calcium content (result in words)” value ([5]; three months after surgery) was “血清钙和磷含量与阴性对照组相比上升”. The calcium content [5, 10] was 4.24 ± 0.41 mmol/L, the “uterine wet weight (result in words)” value [6] was “子宫湿重明显高于阴性对照组” and the uterine wet weight [6] was 90.43 ± 10.43 mg. The “serum alkaline phosphatase content” value [7] was “与阴性对照组相比也出现下降” and the “bone mineral density (result in words)” value [9] was “产生一定的增强骨密度的作用”.
